Consider 1 molecule from patent publication US12459967B2, “Modulators of 5′-nucleotidase, ecto and the use thereof” (Arcus Biosciences, Inc., priority 2016, dated 2025).

Structures are written as SMILES.

For orientation: IC50 means the concentration at which inhibition is half-maximal.

The target in this experiment is T1, human CD73 (Homo sapiens, UniProt P21589).
T1 construct: host or cells: CHO-K1 (suspension pool CHO-CD73)
T1 sequence (P21589 27-549): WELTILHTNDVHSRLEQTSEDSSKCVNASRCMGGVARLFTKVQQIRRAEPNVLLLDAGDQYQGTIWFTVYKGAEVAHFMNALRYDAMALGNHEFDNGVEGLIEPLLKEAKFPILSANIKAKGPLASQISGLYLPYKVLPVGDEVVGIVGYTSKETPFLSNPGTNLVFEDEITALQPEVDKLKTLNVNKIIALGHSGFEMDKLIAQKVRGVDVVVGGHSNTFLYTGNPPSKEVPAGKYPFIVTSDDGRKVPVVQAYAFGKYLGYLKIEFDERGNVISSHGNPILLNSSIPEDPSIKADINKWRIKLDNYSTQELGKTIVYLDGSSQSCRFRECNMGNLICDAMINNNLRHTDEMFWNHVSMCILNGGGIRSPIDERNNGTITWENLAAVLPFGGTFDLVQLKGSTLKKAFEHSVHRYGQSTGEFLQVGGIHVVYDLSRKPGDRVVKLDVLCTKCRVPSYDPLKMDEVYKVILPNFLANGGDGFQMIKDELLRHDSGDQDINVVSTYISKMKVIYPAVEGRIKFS
The experiment in a line: Inhibition of ecto-5′-nucleotidase (CD73) activity in CHO-CD73 cells, phosphate colorimetric readout. The format is cell-based. As to conditions: CHO-K1 cells stably transfected with human CD73, 2500 cells per well, 25 μM AMP substrate, 50 minutes incubation at 37° C.; read-out: Potency: CD73 IC50. In outline:
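Phosphate generated from 25 μM AMP was the read-out (absorbance 620 nm) after 50 min at 37 °C with 2500 human CD73-transfected CHO-K1 cells per well, pH 7.4 HEPES buffer, 2% DMSO. % activity, normalised to DMSO and cell-free wells, was fitted by four-parameter regression to give IC50.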

For the molecule `Cc1cccc(CNc2nc(Cl)nc3c2ncn3[C@@H]2O[C@H](COP(=O)(O)CP(=O)(O)O)[C@@H](O)[C@@H]2F)c1`, the IC50 is less than 100 nM.
